Data reported in patent US20060069132A1, “Azolecarboxamide herbicides” (priority 2004, published 2006).
Read-outs that look alike come from different tables or passages of the source.

Tests used:
[1] = system: barnyardgrass; experiment: Test B pre-/postemergence herbicide test; type: in vivo, Echinochloa crus-galli; settings: Echinochloa crus-galli; for pest or weed control at 125 g/ha: 125 g ai/ha; for pest or weed control at 500 g/ha: 500 g ai/ha
Method in brief: (§1)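 Pre: seeds sown, then sprayed. Post: 1–4-leaf plants (2–18 cm) sprayed at the same time. Paddy: flooded, treated at 2-leaf stage. Formulation: non-phytotoxic solvent with surfactant. Greenhouse 13–15 days; visual 0–100 score relative to controls.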

[2] = system: Surinam grass; experiment: Test B pre-/postemergence herbicide test; type: in vivo, Urochloa decumbens; settings: Urochloa decumbens; for pest or weed control at 125 g/ha: 125 g ai/ha; for pest or weed control at 500 g/ha: 500 g ai/ha
Method in brief: as §1

[3] = system: cocklebur; experiment: Test B pre-/postemergence herbicide test; type: in vivo, Xanthium strumarium; settings: Xanthium strumarium; for pest or weed control at 125 g/ha: 125 g ai/ha; for pest or weed control at 500 g/ha: 500 g ai/ha
Method in brief: as §1

[4] = system: corn; experiment: Test B pre-/postemergence herbicide test; type: in vivo, Zea mays; settings: Zea mays; for plant injury at 125 g/ha: 125 g ai/ha
Method in brief: as §1

[5] = system: large crabgrass; experiment: Test B pre-/postemergence herbicide test; type: in vivo, Digitaria sanguinalis; settings: Digitaria sanguinalis; for pest or weed control at 125 g/ha: 125 g ai/ha; for pest or weed control at 500 g/ha: 500 g ai/ha
Method in brief: as §1

[6] = system: giant foxtail; experiment: Test B pre-/postemergence herbicide test; type: in vivo, Setaria faberi; settings: Setaria faberi, 336 h; for pest or weed control at 125 g/ha: 125 g ai/ha; for pest or weed control at 500 g/ha: 500 g ai/ha
Method in brief: as §1

[7] = system: lambsquarters; experiment: Test B pre-/postemergence herbicide test; type: in vivo, Chenopodium album; settings: Chenopodium album, 336 h; for pest or weed control at 125 g/ha: 125 g ai/ha; for pest or weed control at 500 g/ha: 500 g ai/ha
Method in brief: as §1

[8] = system: morningglory; experiment: Test B pre-/postemergence herbicide test; type: in vivo, Ipomoea coccinea; settings: Ipomoea, 336 h; for pest or weed control at 125 g/ha: 125 g ai/ha; for pest or weed control at 500 g/ha: 500 g ai/ha
Method in brief: as §1

[9] = system: velvetleaf; experiment: Test B pre-/postemergence herbicide test; type: in vivo, Abutilon theophrasti; settings: Abutilon theophrasti, 336 h; for pest or weed control at 125 g/ha: 125 g ai/ha; for pest or weed control at 500 g/ha: 500 g ai/ha
Method in brief: as §1

[10] = system: blackgrass; experiment: Test B postemergence herbicide test; type: in vivo, Alopecurus myosuroides; settings: Alopecurus myosuroides, post-emergence, 336 h, postemergence, visual rating, scale 0 (no effect) to 100 (complete control), read-out: Blackgrass plant response rating
Method in brief: (§2)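 Read-out: visual comparison with controls, scored 0 to 100, where 100 means complete control and 0 no effect. Formulated chemicals were applied postemergence to plants 2–18 cm tall (1- to 4-leaf), or to flooded-paddy plants at the 2-leaf stage, then held 13 to 15 days under glass.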

[11] = system: wheat; experiment: Test B postemergence herbicide test; type: in vivo, Triticum aestivum; settings: Triticum aestivum, post-emergence, 336 h, postemergence, read-out: Wheat plant response rating
Method in brief: as §2

[12] = system: rice; experiment: Test B flooded paddy test; type: in vivo, Oryza sativa; settings: Oryza sativa, 336 h, 1000 g ai/ha, scale 0 to 100 (0 no effect, 100 complete control), read-out: Rice plant response rating
Method in brief: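 Plants grow to 1- to 4-leaf stage (2–18 cm) for postemergence spraying, or to 2-leaf stage for the paddy test. Formulated compound is applied. Greenhouse holding lasts 13–15 days. Response is scored visually relative to controls, 0 no effect to 100 complete control; a dash means no result.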

[13] = system: small flower umbrella sedge; experiment: Test B flooded paddy test; type: in vivo, Cyperus difformis; settings: Cyperus difformis, 336 h, 1000 g ai/ha, scale 0 to 100 (0 no effect, 100 complete control), read-out: Sedge, Umbrella plant response rating
Method in brief: as §2

[14] = system: ducksalad; experiment: Test B flooded paddy test; type: in vivo, Heteranthera limosa; settings: Heteranthera limosa, 336 h, 1000 g ai/ha, scale 0 to 100 (0 no effect, 100 complete control), read-out: Ducksalad plant response rating
Method in brief: as §2

[15] = system: barnyardgrass; experiment: Test B flooded paddy test; type: in vivo, Echinochloa crus-galli; settings: Echinochloa crus-galli, 336 h, 1000 g ai/ha, scale 0 to 100 (0 no effect, 100 complete control), read-out: Barnyardgrass plant response rating
Method in brief: as §2

[16] = post-emergence, postemergence, visual rating, scale 0 (no effect) to 100 (complete control), read-out: Barnyardgrass plant response rating
[17] = post-emergence, postemergence, visual rating, scale 0 (no effect) to 100 (complete control), read-out: Cocklebur plant response rating

CCNC(=O)c1cc(NC(=O)c2cn(C(C)(C)C)nc2CC)ccc1F [Compound 241, 1-(1,1-dimethylethyl)-3-ethyl-N-[3-[(ethylamino)carbonyl]-4-fluorophenyl]-1H-pyrazole-4-carboxamide]
pest or weed control at 125 g/ha [1, 16]: 0%
pest or weed control at 500 g/ha [1, 16]: 0%
pest or weed control at 125 g/ha ([1]; pre-emergence, 0 = no effect, 100 = complete control, read-out: Barnyardgrass plant response rating (0 to 100 scale)): 0%
pest or weed control at 500 g/ha ([1]; pre-emergence, visual rating, 0 = no effect, 100 = complete control, read-out: Plant response rating, Barnyardgrass): 80%
pest or weed control at 125 g/ha ([2]; post-emergence, postemergence, visual rating, scale 0 (no effect) to 100 (complete control), read-out: Surinam Grass plant response rating): 10%
pest or weed control at 500 g/ha ([2]; post-emergence, postemergence, scale 0 to 100, 0 is no effect, 100 is complete control, read-out: Surinam Grass plant response rating): 20%
pest or weed control at 125 g/ha ([2]; pre-emergence, 0 = no effect, 100 = complete control, read-out: Surinam Grass plant response rating (0 to 100 scale)): 10%
pest or weed control at 500 g/ha ([2]; pre-emergence, visual rating, 0 = no effect, 100 = complete control, read-out: Plant response rating, Surinam Grass): 90%
pest or weed control at 125 g/ha [3, 17]: 20%
pest or weed control at 500 g/ha [3, 17]: 30%
pest or weed control at 125 g/ha ([3]; pre-emergence, 0 = no effect, 100 = complete control, read-out: Cocklebur plant response rating (0 to 100 scale)): 0%
pest or weed control at 500 g/ha ([3]; pre-emergence, visual rating, 0 = no effect, 100 = complete control, read-out: Plant response rating, Cocklebur): 0%
plant injury at 125 g/ha ([4]; post-emergence, postemergence, visual rating, scale 0 (no effect) to 100 (complete control), read-out: Corn plant response rating): 0%
plant injury at 500 g/ha ([4]; post-emergence, postemergence, 500 g ai/ha, scale 0 to 100, 0 is no effect, 100 is complete control, read-out: Corn plant response rating): 10%
plant injury at 125 g/ha ([4]; pre-emergence, 0 = no effect, 100 = complete control, read-out: Corn plant response rating (0 to 100 scale)): 0%
Corn plant response rating (crop injury, 0 = no effect, 100 = complete kill) at 500 g/ha ([4]; pre-emergence, 500 g ai/ha, visual rating, 0 = no effect, 100 = complete control): 30%
pest or weed control at 125 g/ha ([5]; post-emergence, postemergence, visual rating, scale 0 (no effect) to 100 (complete control), read-out: Crabgrass, Large plant response rating): 0%
pest or weed control at 500 g/ha ([5]; post-emergence, postemergence, scale 0 to 100, 0 is no effect, 100 is complete control, read-out: Crabgrass, Large plant response rating): 10%
pest or weed control at 125 g/ha ([5]; pre-emergence, 0 = no effect, 100 = complete control, read-out: Crabgrass, Large plant response rating (0 to 100 scale)): 90%
pest or weed control at 500 g/ha ([5]; pre-emergence, visual rating, 0 = no effect, 100 = complete control, read-out: Plant response rating, Crabgrass, Large): 100%
pest or weed control at 125 g/ha ([6]; post-emergence, postemergence, visual rating, scale 0 (no effect) to 100 (complete control), read-out: Foxtail, Giant plant response rating): 0%
pest or weed control at 500 g/ha ([6]; post-emergence, postemergence, scale 0 to 100, 0 is no effect, 100 is complete control, read-out: Foxtail, Giant plant response rating): 0%
pest or weed control at 125 g/ha ([6]; pre-emergence, 0 = no effect, 100 = complete control, read-out: Foxtail, Giant plant response rating (0 to 100 scale)): 10%
pest or weed control at 500 g/ha ([6]; pre-emergence, visual rating, 0 = no effect, 100 = complete control, read-out: Plant response rating, Foxtail, Giant): 90%
pest or weed control at 125 g/ha ([7]; post-emergence, postemergence, visual rating, scale 0 (no effect) to 100 (complete control), read-out: Lambsquarters plant response rating): 30%
pest or weed control at 500 g/ha ([7]; post-emergence, postemergence, scale 0 to 100, 0 is no effect, 100 is complete control, read-out: Lambsquarters plant response rating): 50%
pest or weed control at 125 g/ha ([7]; pre-emergence, 0 = no effect, 100 = complete control, read-out: Lambsquarters plant response rating (0 to 100 scale)): 80%
pest or weed control at 500 g/ha ([7]; pre-emergence, visual rating, 0 = no effect, 100 = complete control, read-out: Plant response rating, Lambsquarters): 100%
pest or weed control at 125 g/ha ([8]; post-emergence, postemergence, visual rating, scale 0 (no effect) to 100 (complete control), read-out: Morningglory plant response rating): 20%
pest or weed control at 500 g/ha ([8]; post-emergence, postemergence, scale 0 to 100, 0 is no effect, 100 is complete control, read-out: Morningglory plant response rating): 70%
pest or weed control at 125 g/ha ([8]; pre-emergence, 0 = no effect, 100 = complete control, read-out: Morningglory plant response rating (0 to 100 scale)): 0%
pest or weed control at 500 g/ha ([8]; pre-emergence, visual rating, 0 = no effect, 100 = complete control, read-out: Plant response rating, Morningglory): 0%
pest or weed control at 125 g/ha ([9]; post-emergence, postemergence, visual rating, scale 0 (no effect) to 100 (complete control), read-out: Velvetleaf plant response rating): 10%
pest or weed control at 500 g/ha ([9]; post-emergence, postemergence, scale 0 to 100, 0 is no effect, 100 is complete control, read-out: Velvetleaf plant response rating): 10%
pest or weed control at 125 g/ha ([9]; pre-emergence, 0 = no effect, 100 = complete control, read-out: Velvetleaf plant response rating (0 to 100 scale)): 20%
pest or weed control at 500 g/ha ([9]; pre-emergence, visual rating, 0 = no effect, 100 = complete control, read-out: Plant response rating, Velvetleaf): 100%
pest or weed control at 125 g/ha ([10]; 125 g ai/ha): 0%
pest or weed control at 500 g/ha ([10]; 500 g ai/ha): 10%
plant injury at 125 g/ha ([11]; 125 g ai/ha, visual rating, scale 0 (no effect) to 100 (complete control)): 0%
plant injury at 500 g/ha ([11]; 500 g ai/ha, scale 0 to 100, 0 is no effect, 100 is complete control): 10%
plant injury at 1000 g/ha [12]: 70%
pest or weed control at 1000 g/ha [13]: 80%
pest or weed control at 1000 g/ha [14]: 70%
pest or weed control at 1000 g/ha [15]: 80%
